Data reported in ChEMBL document CHEMBL4138244, “Structure-based identification of a NEDD8-activating enzyme inhibitor via drug repurposing” (Eur J Med Chem, 2018).
The source made the active and inactive calls. The calls are words filed in the database; no cut-off is given here.

Experiments:
[1] = target: T1, NEDD8 activating enzyme (Homo sapiens) (UniProt Q8TBC4+Q13564); assay: Inhibition of NAE in human Caco2 cells assessed as increase in p53 protein levels at 1 to 10 uM after 16 hrs by Western blot analysis; type: cell-based
[2] = system: Caco-2; assay: Upregulation of p53 protein levels in NAE knockdown human Caco2 cells at 10 uM after 16 hrs by Western blot analysis; type: functional, cell-based
[3] = system: Caco-2; assay: Induction of apoptosis in human Caco2 cells assessed as early apoptotic cells at 1 uM after 16 hrs by Annexin V-FITC/propidium iodide staining-based flow cytometric analysis (reference value: 1.40%); type: functional
[4] = target: T1, NEDD8 activating enzyme (Homo sapiens); assay: Inhibition of NAE in human Caco2 cells assessed as increase in p53 protein levels by measuring p53 degradation at 10 uM preincubated for 16 hrs followed by cycloheximide addition measured up to 60 mins by Western blot analysis relative to control; type: cell-based; set-up: scale not given: the % may be the effect or the level left
[5] = system: Caco-2; assay: Induction of apoptosis in human Caco2 cells assessed as late apoptotic cells at 1 uM after 16 hrs by Annexin V-FITC/propidium iodide staining-based flow cytometric analysis (reference value: 0.072%); type: functional
[6] = target: T1, NEDD8 activating enzyme (Homo sapiens); assay: Inhibition of NAE in human Caco2 cells assessed as increase in c-myc protein levels after 16 hrs by Western blot analysis; type: cell-based
[7] = system: Caco-2; assay: Induction of apoptosis in human Caco2 cells assessed as necrotic cells at 10 uM after 16 hrs by Annexin V-FITC/propidium iodide staining-based flow cytometric analysis (reference value: 0.12%); type: functional
[8] = system: Caco-2; assay: Cytotoxicity against NAE-knockdown human Caco2 cells after 72 hrs by MTT assay; type: cell-based; conditions: Caco-2, 72 h
[9] = target: T1, NEDD8 activating enzyme (Homo sapiens); assay: Inhibition of NAE in human Caco2 cells assessed as increase in p53 protein levels at 0.1 to 10 uM after 16 hrs by Western blot analysis; type: cell-based
[10] = target: T1, NEDD8 activating enzyme (Homo sapiens); assay: Inhibition of NAE in human Caco2 cells harboring p53-luc plasmid assessed as increase in p53 transcriptional activity after 16 hrs by luciferase reporter gene assay; type: cell-based
[11] = system: Caco-2; assay: Induction of apoptosis in human Caco2 cells assessed as necrotic cells at 1 uM after 16 hrs by Annexin V-FITC/propidium iodide staining-based flow cytometric analysis (reference value: 0.12%); type: functional
[12] = target: T1, NEDD8 activating enzyme (Homo sapiens); assay: Inhibition of NAE (unknown origin) assessed as decrease in NAE-mediated Ubc12-NEDD8 conjugation levels at 10 uM treated for 10 mins post ATP and Mg2+ addition measured after 60 mins by Western blot analysis; type: protein-complex assay
[13] = system: Caco-2; assay: Induction of apoptosis in human Caco2 cells assessed as viable cells at 10 uM after 16 hrs by Annexin V-FITC/propidium iodide staining-based flow cytometric analysis (reference value: 98.4%); type: functional; conditions: Caco-2, 16 h, read-out: Activity
[14] = system: Caco-2; assay: Induction of apoptosis in human Caco2 cells assessed as late apoptotic cells at 5 uM after 16 hrs by Annexin V-FITC/propidium iodide staining-based flow cytometric analysis (reference value: 0.072%); type: functional
[15] = system: Caco-2; assay: Induction of apoptosis in human Caco2 cells assessed as early apoptotic cells at 5 uM after 16 hrs by Annexin V-FITC/propidium iodide staining-based flow cytometric analysis (reference value: 1.40%); type: functional
[16] = system: Caco-2; assay: Induction of apoptosis in human Caco2 cells assessed as viable cells at 5 uM after 16 hrs by Annexin V-FITC/propidium iodide staining-based flow cytometric analysis (reference value: 98.4%); type: functional; conditions: Caco-2, 16 h, read-out: Activity
[17] = system: Caco-2; assay: Induction of apoptosis in human Caco2 cells assessed as viable cells at 1 uM after 16 hrs by Annexin V-FITC/propidium iodide staining-based flow cytometric analysis (reference value: 98.4%); type: functional; conditions: Caco-2, 16 h, read-out: Activity
[18] = target: T2, SUMO-activating enzyme (Homo sapiens) (UniProt Q9UBE0+Q9UBT2); assay: Inhibition of SAE-mediated Ubc9-SUMO conjugation in human Caco2 cells up to 10 uM preincubated for 10 mins followed by ATP and Mg2+ addition measured after 60 mins by Western blot analysis; type: cell-based
[19] = system: Caco-2; assay: Induction of apoptosis in human Caco2 cells assessed as late apoptotic cells at 10 uM after 16 hrs by Annexin V-FITC/propidium iodide staining-based flow cytometric analysis (reference value: 0.072%); type: functional
[20] = system: Caco-2; assay: Induction of apoptosis in human Caco2 cells assessed as early apoptotic cells at 10 uM after 16 hrs by Annexin V-FITC/propidium iodide staining-based flow cytometric analysis (reference value: 1.40%); type: functional
[21] = target: T1, NEDD8 activating enzyme (Homo sapiens); assay: Inhibition of NAE-mediated Ubcl2-NEDD8 conjugation in human Caco2 cells at 10 uM after 16 hrs by Western blot analysis; type: cell-based
[22] = target: T3, NEDD8 activating enzyme (Homo sapiens, UniProt Q8TBC4); assay: (§1) Inhibition of NAE-mediated Ubcl2-NEDD8 conjugation in human Caco2 cells after 16 hrs by Western blot analysis; type: cell-based
T3 sequence (Q8TBC4 whole entry): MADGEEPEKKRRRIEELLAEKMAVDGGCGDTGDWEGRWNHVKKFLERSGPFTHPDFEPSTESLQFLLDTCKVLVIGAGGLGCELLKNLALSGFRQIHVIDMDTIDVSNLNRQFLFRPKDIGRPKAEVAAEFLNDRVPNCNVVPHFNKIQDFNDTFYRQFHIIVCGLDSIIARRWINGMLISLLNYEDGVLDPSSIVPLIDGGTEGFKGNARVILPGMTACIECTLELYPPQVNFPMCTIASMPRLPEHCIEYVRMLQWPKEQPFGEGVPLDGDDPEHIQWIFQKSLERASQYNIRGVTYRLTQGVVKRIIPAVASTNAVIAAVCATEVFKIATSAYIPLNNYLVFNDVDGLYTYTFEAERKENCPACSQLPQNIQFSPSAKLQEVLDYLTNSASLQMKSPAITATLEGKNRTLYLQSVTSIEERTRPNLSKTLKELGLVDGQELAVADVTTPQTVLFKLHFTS
T3 sequence (Q13564 whole entry): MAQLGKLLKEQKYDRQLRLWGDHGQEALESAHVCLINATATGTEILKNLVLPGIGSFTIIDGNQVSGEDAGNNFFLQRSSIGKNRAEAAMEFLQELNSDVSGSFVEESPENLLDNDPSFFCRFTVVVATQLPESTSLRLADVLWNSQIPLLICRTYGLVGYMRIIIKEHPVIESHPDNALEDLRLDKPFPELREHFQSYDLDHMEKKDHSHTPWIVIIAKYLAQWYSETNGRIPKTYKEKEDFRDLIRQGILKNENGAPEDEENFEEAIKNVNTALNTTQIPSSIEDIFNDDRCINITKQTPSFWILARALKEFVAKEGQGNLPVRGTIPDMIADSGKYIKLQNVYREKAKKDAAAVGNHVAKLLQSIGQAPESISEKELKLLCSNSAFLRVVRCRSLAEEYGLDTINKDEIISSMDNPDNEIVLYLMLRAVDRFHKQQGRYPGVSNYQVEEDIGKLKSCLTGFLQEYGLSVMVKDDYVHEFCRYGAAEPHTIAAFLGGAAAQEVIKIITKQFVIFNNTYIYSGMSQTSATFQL

[23] = target: T1, NEDD8 activating enzyme (Homo sapiens); assay: as §1; type: cell-based
[24] = target: T1, NEDD8 activating enzyme (Homo sapiens); assay: Inhibition of NAE in human Caco2 cells assessed as increase in p27 protein levels at 0.1 to 10 uM after 16 hrs by Western blot analysis; type: cell-based
[25] = system: Caco-2; assay: Induction of apoptosis in human Caco2 cells assessed as necrotic cells at 5 uM after 16 hrs by Annexin V-FITC/propidium iodide staining-based flow cytometric analysis (reference value: 0.12%); type: functional
[26] = target: T1, NEDD8 activating enzyme (Homo sapiens); assay: Inhibition of NAE (unknown origin) assessed as decrease in NAE-mediated Ubc12-NEDD8 conjugation levels preincubated for 10 mins followed by ATP and Mg2+ addition measured after 60 mins by Western blot analysis; type: protein-complex assay
[27] = system: Caco-2; assay: Cytotoxicity against human Caco2 cells after 72 hrs by MTT assay; type: functional, cell-based; conditions: Caco-2, 72 h
[28] = target: T4, Ubiquitin-like modifier-activating enzyme 1 (Homo sapiens) (UniProt P22314); assay: Inhibition of UAE1 (unknown origin) assessed as decrease in UAE1-mediated Ubc10-ubiquitin conjugation levels up to 10 uM preincubated for 10 mins followed by ATP and Mg2+ addition measured after 60 mins by Western blot analysis
T4 sequence (whole entry): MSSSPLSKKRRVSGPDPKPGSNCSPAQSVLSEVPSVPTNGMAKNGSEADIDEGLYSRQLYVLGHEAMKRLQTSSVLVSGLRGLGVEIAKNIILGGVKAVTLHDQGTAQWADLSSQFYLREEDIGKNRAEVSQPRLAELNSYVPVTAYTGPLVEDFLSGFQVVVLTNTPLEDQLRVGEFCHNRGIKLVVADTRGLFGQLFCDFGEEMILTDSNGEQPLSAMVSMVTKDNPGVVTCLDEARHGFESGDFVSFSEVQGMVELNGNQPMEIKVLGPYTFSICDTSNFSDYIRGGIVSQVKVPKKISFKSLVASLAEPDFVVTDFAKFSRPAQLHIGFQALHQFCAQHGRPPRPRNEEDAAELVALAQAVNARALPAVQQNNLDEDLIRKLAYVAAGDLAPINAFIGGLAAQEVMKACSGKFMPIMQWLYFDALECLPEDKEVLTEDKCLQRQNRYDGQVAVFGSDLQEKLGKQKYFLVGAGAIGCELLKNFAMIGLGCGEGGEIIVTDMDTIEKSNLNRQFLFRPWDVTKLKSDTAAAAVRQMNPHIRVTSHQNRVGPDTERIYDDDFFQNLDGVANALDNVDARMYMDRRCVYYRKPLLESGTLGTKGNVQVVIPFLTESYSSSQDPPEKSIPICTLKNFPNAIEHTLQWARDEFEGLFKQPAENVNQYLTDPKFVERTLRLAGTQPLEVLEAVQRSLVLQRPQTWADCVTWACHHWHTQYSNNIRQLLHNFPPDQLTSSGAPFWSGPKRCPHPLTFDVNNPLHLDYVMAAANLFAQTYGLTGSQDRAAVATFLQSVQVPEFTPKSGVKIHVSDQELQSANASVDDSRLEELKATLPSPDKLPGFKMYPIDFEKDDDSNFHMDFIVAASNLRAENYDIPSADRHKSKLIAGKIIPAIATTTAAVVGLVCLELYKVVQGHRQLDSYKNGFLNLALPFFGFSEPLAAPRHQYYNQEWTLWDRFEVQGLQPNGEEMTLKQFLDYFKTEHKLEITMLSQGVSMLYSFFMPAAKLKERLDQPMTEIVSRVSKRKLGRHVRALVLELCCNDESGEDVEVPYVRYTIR

[29] = target: T1, NEDD8 activating enzyme (Homo sapiens); assay: Inhibition of NAE in human Caco2 cells assessed as increase in phosphorylated NF-kappaB protein levels at 0.1 to 10 uM after 16 hrs by Western blot analysis; type: cell-based
[30] = target: T1, NEDD8 activating enzyme (Homo sapiens); assay: Inhibition of NAE in human Caco2 cells assessed as decrease in Bcl2 protein levels at 0.1 to 10 uM after 16 hrs by Western blot analysis; type: cell-based
[31] = target: T1, NEDD8 activating enzyme (Homo sapiens); assay: Competitive inhibition of NAE (unknown origin) assessed as decrease in NAE-mediated Ubc12-NEDD8 conjugation levels at 10 uM preincubated for 10 mins followed by Mg2+ and various concentrations of ATP addition measured after 60 mins by Lineweaver-Burk plot analysis; type: protein-complex assay
[32] = target: T2, SUMO-activating enzyme (Homo sapiens); assay: Inhibition of SAE (unknown origin) assessed as decrease in SAE-mediated Ubc9-SUMO conjugation levels up to 10 uM preincubated for 10 mins followed by ATP and Mg2+ addition measured after 60 mins by Western blot analysis; type: protein-complex assay
[33] = target: T1, NEDD8 activating enzyme (Homo sapiens); assay: Inhibition of NAE in human Caco2 cells assessed as increase in beta-catenin protein levels after 16 hrs by Western blot analysis; type: cell-based
[34] = target: T4, Ubiquitin-like modifier-activating enzyme 1 (Homo sapiens); assay: Inhibition of UAE1-mediated Ubc10-ubiquitin conjugation in human Caco2 cells up to 10 uM preincubated for 10 mins followed by ATP and Mg2+ addition measured after 60 mins by Western blot analysis; type: cell-based
[35] = target: T1, NEDD8 activating enzyme (Homo sapiens); assay: Inhibition of NAE in human Caco2 cells assessed as decrease in cyclin D1 protein levels at 0.1 to 10 uM after 16 hrs by Western blot analysis; type: cell-based

SMILES: COc1cc([C@@H]2c3cc4c(cc3[C@H](O)[C@H]3COC(=O)[C@H]23)OCO4)cc(OC)c1OC
- inhibition [1]: Active

SMILES: O=C1c2c(O)ccc(O)c2C(=O)c2c(NCCNCCO)ccc(NCCNCCO)c21 [MITOXANTRONE]
- Activity [2]: Active
- Activity [3]: 42%
- Activity [4]: 15%
- Activity [5]: 19.4%
- inhibition [6]: Dose-dependent effect
- Activity [7]: 73.6%
- IC50 [8]: > 10 µM
- inhibition [9]: Active
- inhibition [10]: Dose-dependent effect
- Activity [11]: 2.49%
- inhibition [12]: inactive
- viability at 10 µM [13]: 3.34%
- Activity [14]: 50.7%
- Activity [15]: 27.8%
- viability at 5 µM [16]: 15.4%
- viability at 1 µM [17]: 36%
- inhibition [18]: inactive
- Activity [19]: 22.1%
- Activity [20]: 0.91%
- inhibition [21]: Active
- EC50 [22]: 1.3 µM
- inhibition [23]: Dose-dependent effect
- inhibition [24]: Active
- Activity [25]: 6.07%
- inhibition [26]: Dose-dependent effect
- IC50 [27]: 1.4 µM
- inhibition [28]: inactive
- inhibition [1]: Active
- inhibition [29]: Active
- inhibition [30]: Active
- inhibition [31]: Active
- inhibition [32]: inactive
- inhibition [33]: Dose-dependent effect
- inhibition [34]: inactive
- inhibition [35]: Active

SMILES: NS(=O)(=O)OC[C@@H]1C[C@@H](n2ccc3c(N[C@H]4CCc5ccccc54)ncnc32)C[C@@H]1O [PEVONEDISTAT]
- Activity [7]: 6.27%
- viability at 10 µM [13]: 46.6%
- Activity [19]: 14.3%
- Activity [20]: 32.8%
- inhibition [23]: Dose-dependent effect
- IC50 [27]: 4.4 µM
- inhibition [31]: Active
